Assay results: patent US20230363391A1, “Biocidal Composition and Method” (ARXADA AG, priority 2020, published 2023)
Marks after values point to notes of the source that are not given here.

Assays:
[1] = test system: bacteria, fungi, and yeast; settings: background statement; cited from earlier work
[2] = test system: Pseudomonas aeruginosa, Escherichia coli, Enterobacter cloacae, Acinetobacter calcoaceticus; assay: Repeat in-can challenge test, same conditions (Table 2); format: cell-based
Experimental: (§1) Various formulations were made in accordance with the present disclosure and tested for performance. In one challenge test, the efficacy of dicyandiamide as an adjuvant for BIT was evaluated using modified ASTM D2574-97 “Standard Test Method for Resistance of Emulsion Paints in the Container to Attack by Microorganisms” with higher inoculation volumes and frequency. A standard consortium of four (4) bacterial populations: Pseudomonas aeruginosa, Escherichia coli, Enterobacter cloacae, Acinetobacter calcoaceticus was used to inoculate three (3) different samples at ten percent (10%), five percent (5%), or two and a half percent (2.5%) of the sample size. At twenty-four (24) hours and seventy-two (72) hours after each inoculation, a portion of each sample was streaked on tryptic soy agar. A dilution plate count was performed at the last seventy-two (72) hour time point.
(§2) Example data provided in Tables 1, 2 and 3 should be understood as indicating the degree of microbial growth observed for a given data point unless otherwise indicated. In particular, each plate is ranked from 0 through 5c (i.e., one of 0, 1, 2, 3, 4, 5, or 5c) according to the degree of observed microbial growth, where: a “0” ranking indicates no growth; a “1” ranking indicates one (1) through five (5) observed colony forming unit (cfu), i.e., the plate was very lightly contaminated; a “2” ranking indicates six (6) through fifteen (15) cfu, i.e., the plate was lightly contaminated; a “3” ranking indicates sixteen (16) through thirty (30) cfu, i.e., the plate was moderately contaminated; a “4” ranking indicates thirty-one (31) through forty-five (45) cfu, i.e., the plate was heavily contaminated; a “5” ranking indicates greater than (45) cfu, i.e., the plate was severely contaminated; and a “5c” ranking indicates confluent growth, i.e., the plate was very severely contaminated. Thus, for instance, Table 1, Challenge 1 at 24 h for BIT 50 ppm has a value of 5 indicating greater than forty-five (45) cfu were observed. As another example for illustration, Table 1, Challenge 1 at 24 h for dicyandiamide 5,000 ppm + BIT 50 ppm has a value of 1 indicating one (1) through five (5) cfu was observed.

[3] = test system: Pseudomonas aeruginosa, Escherichia coli, Enterobacter cloacae, Acinetobacter calcoaceticus; assay: In-can challenge test, modified ASTM D2574-97 (Table 1); format: cell-based
Experimental: as §1, §2

microbial growth = assay: In-can challenge test of dicyandiamide as adjuvant for MIT (Table 3); format: cell-based; settings: for Passing result of challenge test (asterisk on sample) / 1st 24, degree of microbial growth (ranking) / 1st 72, degree of microbial growth (ranking) / 2nd 72, degree of microbial growth (ranking) / 3rd 24, degree of microbial growth (ranking) / 3rd 72, degree of microbial growth (ranking): Dicyandiamide 0
From the text: However, using a combination of MIT and dicyandiamide can allow for effective microbial control at MIT concentrations as low as 20 ppm.
as §2

[4] = neutral pH; cited from earlier work
[5] = MIT - 50 30 ppm (MIT 15 ppm as active)
[6] = MIT - 50 40 ppm (MIT 20 ppm as active)
[7] = MIT - 50 50 ppm (MIT 25 ppm as active)
[8] = MIT - 50 60 ppm (MIT 30 ppm as active)
[9] = MIT - 50 70 ppm (MIT 35 ppm as active)

In the case of `O=c1[nH]sc2ccccc12` [BIT, 1,2-benzisothiazolin-3-one], the “Amount required for a reliable and quick biocidal activity” value [1] is listed as no more than 500 ppm, the “Challenge 1 10% 24 h, degree of microbial growth (ranking)” value (shortened to “Challenge 1 10% 24 h, degree”) ([2]; BIT 35 ppm) is listed as 5c and the “Challenge 1 10% 72 h, degree of microbial growth (ranking)” value (“Challenge 1 10% 72 h, degree” for short) ([2]; BIT 35 ppm) is listed as 5c. For the same compound, the “Challenge 2 5% 72 h, degree of microbial growth (ranking)” value (“Challenge 2 5% 72 h, degree” below) ([2]; BIT 35 ppm) was 5c, the “Challenge 3 2.5% 24 h, degree of microbial growth (ranking)” value (from here on “Challenge 3 2.5% 24 h, degree”) ([2]; BIT 35 ppm) was 5c and the “Challenge 3 2.5% 72 h, dilution plate count” value (“Challenge 3 2.5% 72 h” for short) ([2]; BIT 35 ppm) was 3.0×10^6. The “Challenge 1 10% 24 h, degree” value ([2]; BIT 50 ppm) was 5c, the “Challenge 1 10% 72 h, degree” value ([2]; BIT 50 ppm) was 5c and the “Challenge 2 5% 72 h, degree” value ([2]; BIT 50 ppm) was 5c. The “Challenge 3 2.5% 24 h, degree” value ([2]; BIT 50 ppm) was 5c, the “Challenge 3 2.5% 72 h” value ([2]; BIT 50 ppm) was 6.6×10^6 and the “Challenge 1 10% 24 h, degree” value ([2]; BIT 65 ppm) was 5c. For the same compound, the “Challenge 1 10% 72 h, degree” value ([2]; BIT 65 ppm) was 3 (sixteen (16) through thirty (30) cfu, i.e., the plate was moderately contaminated), the “Challenge 2 5% 72 h, degree” value ([2]; BIT 65 ppm) was 5c and the “Challenge 3 2.5% 24 h, degree” value ([2]; BIT 65 ppm) was 5c. The “Challenge 3 2.5% 72 h” value ([2]; BIT 65 ppm) was 1.0×10^6, the “Challenge 1 10% 24 h, degree” value ([2]; BIT 75 ppm) was 5c and the “Challenge 1 10% 72 h, degree” value ([2]; BIT 75 ppm) was 0. For the same compound, the “Challenge 2 5% 72 h, degree” value ([2]; BIT 75 ppm) was 5 (greater than (45) cfu, i.e., the plate was severely contaminated), the “Challenge 3 2.5% 24 h, degree” value ([2]; BIT 75 ppm) was 5c and the “Challenge 3 2.5% 72 h” value ([2]; BIT 75 ppm) was 2.8×10^5. For the same compound, the “Challenge 1 10% 24 h, degree” value ([2]; BIT 100 ppm) was 5c, the “Challenge 1 10% 72 h, degree” value ([2]; BIT 100 ppm) was 0 and the “Challenge 2 5% 72 h, degree” value ([2]; BIT 100 ppm) was 5 (greater than (45) cfu, i.e., the plate was severely contaminated). For the same compound, the “Challenge 3 2.5% 24 h, degree” value ([2]; BIT 100 ppm) was 5c, the “Challenge 3 2.5% 72 h” value ([2]; BIT 100 ppm) was 1.8×10^7 and the “Challenge 1 10% 24 h, degree” value ([3]; BIT 50 ppm) was 5 (greater than (45) cfu, i.e., the plate was severely contaminated). The “Challenge 1 10% 72 h, degree” value ([3]; BIT 50 ppm) was 2 (six (6) through fifteen (15) cfu, i.e., the plate was lightly contaminated), the “Challenge 2 5% 72 h, degree” value ([3]; BIT 50 ppm) was 5 (greater than (45) cfu, i.e., the plate was severely contaminated) and the “Challenge 3 2.5% 24 h, degree” value ([3]; BIT 50 ppm) was 5c. The “Challenge 3 2.5% 72 h” value ([3]; BIT 50 ppm) was 7.8×10^6, the “Challenge 1 10% 24 h, degree” value ([3]; BIT 100 ppm) was 5 (greater than (45) cfu, i.e., the plate was severely contaminated) and the “Challenge 1 10% 72 h, degree” value ([3]; BIT 100 ppm) was 0. The “Challenge 2 5% 72 h, degree” value ([3]; BIT 100 ppm) was 0, the “Challenge 3 2.5% 24 h, degree” value ([3]; BIT 100 ppm) was 5 (greater than (45) cfu, i.e., the plate was severely contaminated) and the “Challenge 3 2.5% 72 h” value ([3]; BIT 100 ppm) was 5.0×10^1.

For `N#CN=C(N)N` [Dicyandiamide, 2-cyanoguanidine], the “Challenge 1 10% 24 h, degree” value ([2]; Dicyandiamide 5,000 ppm) was 5c, the “Challenge 1 10% 72 h, degree” value ([2]; Dicyandiamide 5,000 ppm) was 5c and the “Challenge 2 5% 72 h, degree” value ([2]; Dicyandiamide 5,000 ppm) was 5c. For the same compound, the “Challenge 3 2.5% 24 h, degree” value ([2]; Dicyandiamide 5,000 ppm) was 5c, the “Challenge 3 2.5% 72 h” value ([2]; Dicyandiamide 5,000 ppm) was 2.4×10^7 and the “Challenge 1 10% 24 h, degree” value ([3]; Dicyandiamide 5,000 ppm) was 5c. The “Challenge 1 10% 72 h, degree” value ([3]; Dicyandiamide 5,000 ppm) was 5c, the “Challenge 2 5% 72 h, degree” value ([3]; Dicyandiamide 5,000 ppm) was 5c and the “Challenge 3 2.5% 24 h, degree” value ([3]; Dicyandiamide 5,000 ppm) was 5c. The “Challenge 3 2.5% 72 h” value ([3]; Dicyandiamide 5,000 ppm) was 8.0×10^6, the “Challenge 1 10% 24 h, degree” value ([3]; Dicyandiamide 10,000 ppm) was 5c and the “Challenge 1 10% 72 h, degree” value ([3]; Dicyandiamide 10,000 ppm) was 1 (one (1) through five (5) observed colony forming unit (cfu), i.e., the plate was very lightly contaminated). The “Challenge 2 5% 72 h, degree” value ([3]; Dicyandiamide 10,000 ppm) was 5 (greater than (45) cfu, i.e., the plate was severely contaminated), the “Challenge 3 2.5% 24 h, degree” value ([3]; Dicyandiamide 10,000 ppm) was 5 (greater than (45) cfu, i.e., the plate was severely contaminated) and the “Challenge 3 2.5% 72 h” value ([3]; Dicyandiamide 10,000 ppm) was 4.2×10^6. For the same compound, the “Efficacy in challenge test compared to the blank” value ([3]; dicyandiamide alone, not in combination with BIT, Table 1) was “no significant difference compared to the blank”.

For `Cn1sccc1=O` [MIT - 50, 2-methyl-4-isothiazolin-3-one], the “Passing result of challenge test (asterisk on sample)” value (microbial growth; MIT 30 ppm as active) was “MIT - 50 60 ppm (30)*”, the “Passing result of challenge test (asterisk on sample)” value (microbial growth; MIT 35 ppm as active) was “MIT - 50 70 ppm (35)*” and the “1st 24, degree of microbial growth (ranking)” value (“1st 24, degree” for short) (microbial growth; [5]) was 5 (greater than (45) cfu, i.e., the plate was severely contaminated). The “1st 72, degree of microbial growth (ranking)” value (“1st 72, degree” for short) (microbial growth; [5]) was 5 (greater than (45) cfu, i.e., the plate was severely contaminated), the “2nd 72, degree of microbial growth (ranking)” value (“2nd 72, degree” for short) (microbial growth; [5]) was 5 (greater than (45) cfu, i.e., the plate was severely contaminated) and the “3rd 24, degree of microbial growth (ranking)” value (“3rd 24, degree” for short) (microbial growth; [5]) was 5 (greater than (45) cfu, i.e., the plate was severely contaminated). For the same compound, the “3rd 72, degree of microbial growth (ranking)” value (“3rd 72, degree” for short) (microbial growth; [5]) was 5 (greater than (45) cfu, i.e., the plate was severely contaminated), the “1st 24, degree” value (microbial growth; [6]) was 5 (greater than (45) cfu, i.e., the plate was severely contaminated) and the “1st 72, degree” value (microbial growth; [6]) was 5 (greater than (45) cfu, i.e., the plate was severely contaminated). For the same compound, the “2nd 72, degree” value (microbial growth; [6]) was 5 (greater than (45) cfu, i.e., the plate was severely contaminated), the “3rd 24, degree” value (microbial growth; [6]) was 5 (greater than (45) cfu, i.e., the plate was severely contaminated) and the “3rd 72, degree” value (microbial growth; [6]) was 5 (greater than (45) cfu, i.e., the plate was severely contaminated). For the same compound, the “1st 24, degree” value (microbial growth; [7]) was 5 (greater than (45) cfu, i.e., the plate was severely contaminated), the “1st 72, degree” value (microbial growth; [7]) was 2 (six (6) through fifteen (15) cfu, i.e., the plate was lightly contaminated) and the “2nd 72, degree” value (microbial growth; [7]) was 5 (greater than (45) cfu, i.e., the plate was severely contaminated). The “3rd 24, degree” value (microbial growth; [7]) was 5 (greater than (45) cfu, i.e., the plate was severely contaminated), the “3rd 72, degree” value (microbial growth; [7]) was 5 (greater than (45) cfu, i.e., the plate was severely contaminated) and the “1st 24, degree” value (microbial growth; [8]) was 5 (greater than (45) cfu, i.e., the plate was severely contaminated). For the same compound, the “1st 72, degree” value (microbial growth; [8]) was 0, the “2nd 72, degree” value (microbial growth; [8]) was 5 (greater than (45) cfu, i.e., the plate was severely contaminated) and the “3rd 24, degree” value (microbial growth; [8]) was 5 (greater than (45) cfu, i.e., the plate was severely contaminated). The “3rd 72, degree” value (microbial growth; [8]) was 0, the “1st 24, degree” value (microbial growth; [9]) was 5 (greater than (45) cfu, i.e., the plate was severely contaminated) and the “1st 72, degree” value (microbial growth; [9]) was 0. The “2nd 72, degree” value (microbial growth; [9]) was 0, the “3rd 24, degree” value (microbial growth; [9]) was 5 (greater than (45) cfu, i.e., the plate was severely contaminated) and the “3rd 72, degree” value (microbial growth; [9]) was 0. The “MIT concentration displaying passing results” value (microbial growth; MIT alone, no guanidine enhancer) was no less than 30 ppm.

For Zinc pyrithione [ZPT], the Solubility in water [4] is given as 8 ppm.
